Assay results published in publication PMC11874377, “Fungal-derived methyldeoxaphomins target Plasmodium falciparum segregation through the inhibition of PfActin1” (Proceedings of the National Academy of Sciences of the …, 2025).
Several values for one entry are separate records, joined by “and”; a condition that tells them apart may be missing. Identical values can stand only once. Like-named read-outs stand apart in the source and are kept apart here.

Assays:
Format in all cases: cell-based, Plasmodium falciparum
[1] = system: in vitro evolved NPDG-F-resistant Dd2-Pol δ clones (PfActin1 mutations); assay: Resistant parasite phenotyping and cross resistance, SYBR green I EC50 assay, NPDG-F-resistant clones; conditions: for EC50: Plasmodium falciparum, read-out: EC50 (mean ± SEM)
Procedure: Cloning by limiting dilution was then performed to isolate individual lines from the bulk population. Due to the multiple mutations identified in the first biological replicate, we isolated four clones from this bulk culture as compared to two clones each from the second and third replicates. These clones were phenotyped via a SYBR green I-based dose–response assay (Table 2 and Fig. 2B). […] The DNA of these clones was then extracted and subjected to whole-genome sequencing.
To investigate whether NPDG-F has the same mode of action as cytochalasin D, we tested our clones for sensitivity to both cytochalasin D and jasplakinolide.
Resistant parasite phenotyping and cross resistance measurement
The EC50 assay was performed at 1% parasitemia, 1% hematocrit with SYBR green I in 96-well plates. The highest final concentration of the methyldeoxaphomin NPDG-F was set at 100 μM. Briefly, the compound was subjected to a 3-fold serial dilution with ten dilution points. Three technical replicates were set up at each dilution point. The Dd2-Pol δ parent line and the resistant parasites at 2% hematocrit and 1% parasitemia were added to the drug media at 1:1 ratio. The plate was incubated at 37°C for 72 hours in a chamber filled with a hypoxic gas mixture (3% oxygen, 5% carbon dioxide, and 92% nitrogen). After incubation, the cells were lysis with lysis buffer (20 mM Tris-HCL, 0.08% saponin, 5 mM EDTA, and 0.8% Triton X-100) containing SYBR green I (10,000X, Thermo Fisher, cat # S7563) overnight. Fluorescence was measured at 485nm excitation and 530nm emission using a PHERAstar FSX plate reader (BMG Labtech, Germany). Dose response curves were graphed with Prism 9 Version 9.5.1. […]

[2] = system: Dd2; assay: Rate of killing assay by flow cytometry; conditions: 10 × EC50 for 12, 24, or 48 h
Procedure: After a 24 h lag phase, only 10^0.64 parasites are killed within the first replication cycle (48 h). […] We also examined the in vitro killing rate in Dd2 through flow cytometric analysis.
Following the previously described protocol (Collins et al., 2021), compound or vehicle control was added to Dd2 culture in the majority ring stage and incubated for either 12, 24, or 48 h prior to compound removal. Samples were then taken at the time of compound removal, and every 24 h for 6 days for flow analysis with SYBR Green I and Mitotracker Deep red FM. Analysis was performed in Flowjo version 10 with gating using DHA, vehicle, no mitotracker, no staining, and uninfected RBC controls. Cells designated as SYBR positive and mitotracker positive were gated as “viable parasites” and graphed using Graphpad Prism version 10. […]

[3] = system: P. falciparum chloroquine-sensitive line 3D7; assay: SYBR Green I-based antiplasmodial assay, asexual blood stage, 3D7
Procedure: The antiplasmodial activity of these analogs was assessed in P. falciparum asexual blood stage using a SYBR Green I-based assay. Compounds were tested in both the multidrug resistant line Dd2, and the chloroquine-sensitive line 3D7, to probe any potential for preexisting resistance. […] These methyldeoxaphomin analogs were also cross-screened for cytotoxicity in the human cell line HepG2 to determine their selectivity for the Plasmodium parasite. […] This effect was maintained with analog NPDG-F where both R1 and R2 were substituted with OH groups. […] In addition, the hydroxyl group at carbon 7 seems to be critical for function as a drastic loss of potency was found in NPDG-D as compared to B and C. […]
Plasmodium blood stage culture
Parasite culture in the Chakrabarti lab was maintained following a modified Trager and Jensen protocol (Trager & Jensen, 1976) as previously described (Lee et al., 2021) with RPMI 1640 with 25 mM HEPES pH 7.4, 26 mM NaHCO3, 15 mg/L hypoxanthine, 0.5% Albumax II, 25 mg/L gentamycin, and 2% dextrose. Parasites were grown with human A+ erythrocytes obtained from Florida OneBlood. Cultures were kept in an incubator with 5% […]
Antiplasmodial activity screening
SYBR Green I-based fluorescence assay was performed as previously described (Lee et al., 2021) following protocols by Smilkstein et. al. (Smilkstein et al., 2004). Asynchronous Dd2 parasites were added to serially diluted compounds and incubated for 72 h at 5% CO2, 95% air at 37°C. Plates were then frozen at -80°C, thawed, and incubated for one hour with 1x SYBR Green I in a lysis buffer (20 mM Tris-HCL, 0.08% saponin, 5 mM EDTA, and 0.8% Triton X-100). Fluorescence was then read on a Synergy Neo2 multimode reader (BioTek Winsooki, VT). […]

C=C1C(C)C2C(Cc3ccccc3)NC(=O)C23C(=O)C=CC(O)C(O)C(C)CC(C)CC=CC3C1O (stereo not drawn) [Methyldeoxaphomin NPDG-F]
average EC50 shift, clones from flasks 2 and 3 ([1]; A136S): 3.5 fold
average EC50 shift, clones from flask 1 ([1]; A171V/S and I290L clones): 2.6 fold
EC50 ([1]; DD2, clone 1-C7, A171S (8%), A171V (92%), I290L): 11.5 µM
EC50 ([1]; DD2, clone 1-D6, A171S (3%), A171V (97%), I290L): 7.79 µM
EC50 ([1]; DD2, clone 1-D7, A171S (22%), A171V (78%), I290L): 9.02 µM
EC50 ([1]; DD2, clone 1-F3, A171S (4%), A171V (96%), I290L): 7.04 µM
EC50 ([1]; DD2, clone 2-C4, A136S): 14.1 µM
EC50 ([1]; DD2, clone 2-F5, A136S): 10.2 µM
EC50 ([1]; DD2, clone 3-C3, A136S): 12.7 µM
EC50 ([1]; DD2, clone 3-C5, A136S): 10 µM
Fold change ([1]; clone 1-C7 vs Dd2-Pol δ parent): 3.3
Fold change ([1]; clone 1-D6 vs Dd2-Pol δ parent): 2.3
Fold change ([1]; clone 1-D7 vs Dd2-Pol δ parent): 2.6
Fold change ([1]; clone 1-F3 vs Dd2-Pol δ parent): 2.1
Fold change ([1]; clone 2-C4 vs Dd2-Pol δ parent): 4.1
Fold change ([1]; clone 2-F5 vs Dd2-Pol δ parent): 3.0
Fold change ([1]; clone 3-C3 vs Dd2-Pol δ parent): 3.7
Fold change ([1]; clone 3-C5 vs Dd2-Pol δ parent): 2.9
in vitro killing rate phenotype [2]: delayed inhibition phenotype and a cytocidal killing profile
EC50 ([3]; Plasmodium falciparum, 3D7, abstract, read-out: EC50 in 3D7): 0.29 µM
EC50 ([3]; Plasmodium falciparum, 3D7, average ± SEM of three replicates, read-out: 3D7: Average EC50): 0.29 ± 0.03 µM
EC50 ([3]; Plasmodium falciparum, 3D7, individual replicates, read-out: 3D7: EC50): 0.23 µM
EC50 ([3]; Plasmodium falciparum, 3D7, means from triplicate experiments ± SEM, read-out: 3D7 EC50): 0.29 ± 0.03 µM
EC50 ([3]; individual replicates, read-out: 3D7: EC50): 0.31 µM and 0.33 µM
